Literature values in patent publication US10194658B2, “High concentration low VOC liquid gibberellin” (Stoller Enterprises, Inc., priority 2015, dated 2019).

Details: at 20° C.

vapor pressure: 0.08 mm Hg
SMILES: CC(O)CO (stereo not shown) [propylene glycol, propane-1,2-diol]
